Source: patent EP4810498A1, “MEDICATION FOR TREATING SEVERE MALARIA AND SYNTHESIS METHOD THEREFOR” (Institute of Chinese Materia Medica, China Academy of …, priority 2023, dated 2025)
Like-named read-outs stand apart in the source and are kept apart here. Each block holds one molecule with its values, some of them ahead of it.

Experiments:
[1] = tested on: Plasmodium berghei ANKA strain; assay: Body weight of cerebral malaria model mice; format: in vivo, C57BL/6J mice
Source text: (§1) Experimental study on the antimalarial activity of Artesunazine (Example Ia-1) in vitro and vivo. I. Protection of Artesunazine on mice infected by Plasmodium berghei ANKA strain. (I) Experimental materials: • 1. Animals: C57BL/6J, weighing 16-18 g, 10 in each group, 50 in total. • 2. Plasmodium strain: Plasmodium berghei ANKA strain, donated by Professor Zhao Ya of Air Force Medical University of the People's Liberation Army of China (The Fourth Military Medical University), was preserved in our laboratory by blood transmission or freezing. • 3. Drugs and preparation methods: Artesunazine and a positive control drug artesunate were dissolved in a mixed solvent of polyethylene glycol 400 (PEG400) and water (PEG400:water=4:1), serving as a preparation for immediate use. (II) Experimental methods • 1. Plasmodium resuscitation and passage: A Plasmodium berghei ANKA strain frozen in liquid nitrogen was taken out and placed in a water bath kettle at 37°C. After melting, it was immediately intraperitoneally inoculated into C57BL/6J mice (0.2 mL/mouse). When the infection rate of the breeding mice reached 15-30%, their eyeballs were removed and blood was collected in an anticoagulant tube. After shaking well, the blood was transmitted to offspring C57BL/6J mice with a 1 mL syringe at an injection dose of 0.2 mL/mouse. • 2. Plasmodium inoculation: C57BL/6J mice were weighed and fed adaptively. When the infection rate of offspring C57BL/6J mice reached 15-30%, the total number of red blood cells and the number of pRBCs were counted after their eyeballs were removed and blood was collected. The blood was injected intraperitoneally into model group C57BL/6J mice at an injection dose of 0.2 mL (including 1×10^7 pRBCs) per mouse, which was the 0th day (D0) of inoculation. • 3. Animal grouping: After inoculation, the experimental mice were randomly divided into 5 groups, including a model (M) group, high, medium and low dose Artesunazine groups (i.e., 40 mg/kg, 20 mg/kg, and 10 mg/kg Artesunazine), and an artesunate group (i.e., 15.6 mg/kg AS, clinically equivalent dose). The dosage of the medium dose Artesunazine group (20mg/kg Artesunazine) is equivalent to that of the artesunate group (15.6 mg/kg). There are 10 mice in each group, a total of 50 mice. • 4. Determination of survival rate From the 0th day of inoculation, the death of mice was observed every day for 28 consecutive days. Survival rate = (Number of surviving mice)/(Number of experimental mice) × 100% [formula] • 5. Determination of recurrence rate After inoculation, the mice were randomly divided into groups and administered via nasal drip for 3 h. […] The mouse recurrence rate was calculated by the ratio of the number of mice with recurrence to the total number of mice. […]

[2] = tested on: Plasmodium berghei ANKA strain; assay: Recurrence rate of cerebral malaria model mice (blood smear); format: in vivo, C57BL/6J mice
Source text: Experimental study on the antimalarial activity of Artesunazine (Example Ia-1) in vitro and vivo. I. Protection of Artesunazine on mice infected by Plasmodium berghei ANKA strain. (I) Experimental materials: • 1. Animals: C57BL/6J, weighing 16-18 g, 10 in each group, 50 in total. • 2. Plasmodium strain: Plasmodium berghei ANKA strain, donated by Professor Zhao Ya of Air Force Medical University of the People's Liberation Army of China (The Fourth Military Medical University), was preserved in our laboratory by blood transmission or freezing. • 3. Drugs and preparation methods: Artesunazine and a positive control drug artesunate were dissolved in a mixed solvent of polyethylene glycol 400 (PEG400) and water (PEG400:water=4:1), serving as a preparation for immediate use. (II) Experimental methods • 1. Plasmodium resuscitation and passage: A Plasmodium berghei ANKA strain frozen in liquid nitrogen was taken out and placed in a water bath kettle at 37°C. After melting, it was immediately intraperitoneally inoculated into C57BL/6J mice (0.2 mL/mouse). When the infection rate of the breeding mice reached 15-30%, their eyeballs were removed and blood was collected in an anticoagulant tube. After shaking well, the blood was transmitted to offspring C57BL/6J mice with a 1 mL syringe at an injection dose of 0.2 mL/mouse. • 2. Plasmodium inoculation: C57BL/6J mice were weighed and fed adaptively. When the infection rate of offspring C57BL/6J mice reached 15-30%, the total number of red blood cells and the number of pRBCs were counted after their eyeballs were removed and blood was collected. The blood was injected intraperitoneally into model group C57BL/6J mice at an injection dose of 0.2 mL (including 1×10^7 pRBCs) per mouse, which was the 0th day (D0) of inoculation. • 3. Animal grouping: After inoculation, the experimental mice were randomly divided into 5 groups, including a model (M) group, high, medium and low dose Artesunazine groups (i.e., 40 mg/kg, 20 mg/kg, and 10 mg/kg Artesunazine), and an artesunate group (i.e., 15.6 mg/kg AS, clinically equivalent dose). The dosage of the medium dose Artesunazine group (20mg/kg Artesunazine) is equivalent to that of the artesunate group (15.6 mg/kg). There are 10 mice in each group, a total of 50 mice. • 4. Determination of survival rate From the 0th day of inoculation, the death of mice was observed every day for 28 consecutive days. Survival rate = (Number of surviving mice)/(Number of experimental mice) × 100% [formula] • 5. Determination of recurrence rate After inoculation, the mice were randomly divided into groups and administered via nasal drip for 3 h. After four consecutive days of administration, blood smear test began at D4. A small drop of blood was taken from the tail tip of a mouse and dropped onto a glass slide. The blood drop was pushed to one end at a certain angle with the edge of another glass slide to make a thin blood film with appropriate thickness. After the thin blood film was air-dried, it was fixed with methanol and placed until completely air-dried. After a Giemsa stain solution was diluted at a ratio of 1:9 for staining (completely covering the fixed thin blood film) for 20 min, the thin blood film was rinsed under a faucet, and the water on the surface of the film was quickly absorbed with filter paper. A drop of cedar oil was dropped onto a glass slide for examination under a 100x oil microscope to count the number of parasitized red blood cells contained in 1000 red blood cells. The mouse recurrence rate was calculated by the ratio of the number of mice with recurrence to the total number of mice. Recurrence rate = (Number of mice with recurrence)/(Number of experimental mice) × 100% [formula] • 6. RMCBS score determination A rapid mouse coma behavior scale (RMCBS) was used to evaluate the neurological function of experimental mice. […]

[3] = tested on: Plasmodium berghei ANKA strain; assay: Survival rate of cerebral malaria model mice; format: in vivo, C57BL/6J mice; conditions: nasal drip, four consecutive days, 28 days of observation
Source text: as §1

[4] = tested on: Plasmodium berghei ANKA strain; assay: Rapid mouse coma behavior scale (RMCBS) score of cerebral malaria model mice; format: in vivo, C57BL/6J mice
Source text: as §1

[5] = tested on: Plasmodium falciparum 3D7; assay: SYBR Green assay, growth inhibition of Plasmodium falciparum cultured in vitro; format: cell-based
Method: Plasmodium falciparum in the ring stage was synchronized. Smearing was carried out and the infection rate was counted. The synchronized parasitized red blood cells, healthy red blood cells and mediums were matched in a reasonable ratio, resulting in an in vitro culture system of plasmodia (ring bodies, 2 to 4 hours-old) with a hematocrit of 2% and an infection rate of 1%. […] A1-A10 was paved with 25 µl of drugs (with 8 complex wells for each drug) and mixed evenly, and then diluted in multiple proportions (Ax-Hx). Except for A12-H12, 50 µL of a plasmodium culture solution was spread in all the other wells; and A12-H12 was spread with 50 µl of healthy red blood cells (in the medium with a hematocrit of 2%). […] 100 µl of a lysis buffer was added to each of the wells and put into a drawer to avoid light for 1 h.
In this experiment, SYBR Green assay was used to determine the median inhibitory concentration (IC50) value of the drug for treating Plasmodium falciparum 3D7. Nonlinear regression was used to calculate the value by means of software graphpad prism 8.0 (the value was equal to average value plus or minus standard error), and a four-parameter logistic fitting curve was used. Each value in the curve was equal to average value plus or minus standard error in eight biological repetitive experiments.

[6] = tested on: Plasmodium berghei ANKA strain; assay: Anal temperature of cerebral malaria model mice; format: in vivo, C57BL/6J mice; conditions: compared with the AS group (P<0.001)
Source text: Experimental study on the antimalarial activity of Artesunazine (Example Ia-1) in vitro and vivo. I. Protection of Artesunazine on mice infected by Plasmodium berghei ANKA strain. (I) Experimental materials: • 1. Animals: C57BL/6J, weighing 16-18 g, 10 in each group, 50 in total. • 2. Plasmodium strain: Plasmodium berghei ANKA strain, donated by Professor Zhao Ya of Air Force Medical University of the People's Liberation Army of China (The Fourth Military Medical University), was preserved in our laboratory by blood transmission or freezing. • 3. Drugs and preparation methods: Artesunazine and a positive control drug artesunate were dissolved in a mixed solvent of polyethylene glycol 400 (PEG400) and water (PEG400:water=4:1), serving as a preparation for immediate use. (II) Experimental methods • 1. Plasmodium resuscitation and passage: A Plasmodium berghei ANKA strain frozen in liquid nitrogen was taken out and placed in a water bath kettle at 37°C. After melting, it was immediately intraperitoneally inoculated into C57BL/6J mice (0.2 mL/mouse). […] When the infection rate of offspring C57BL/6J mice reached 15-30%, the total number of red blood cells and the number of pRBCs were counted after their eyeballs were removed and blood was collected. […] The mouse recurrence rate was calculated by the ratio of the number of mice with recurrence to the total number of mice. […]

[7] = 80% polyethylene glycol 400 solution, 40°C, dark
Method: 160.2 mg of Artesunazine was weighed and put into a penicillin bottle, 8 mL of a 80% polyethylene glycol 400 solution was added, and the Artesunazine was completely dissolved by ultrasonic treatment, resulting in about 20.25 mg/mL Artesunazine solution. Subsequently, the penicillin bottle filled with the solution was sealed, covered with aluminum foil paper for light avoidance treatment, and placed in a stability test box at 40°C; and 0.5 mL to 25 mL of the solution was sampled into volumetric flasks on days 0, 3, 7, and 10, respectively. After diluting with methanol and shaking well, the content of the Artesunazine was determined by an ultra performance liquid chromatography (UPLC) method.
The UPLC determination conditions for the Artesunazine are as follows: Instrument: ultra performance liquid chromatography Waters ACQUITY UPLC, chromatographic column: ACQUITY UPLC HSS T3 Column (100 Å, 1.8 µm, 2.1 mm×100 mm), detection wavelength: 295 nm, mobile phase: acetonitrile-0.1% phosphoric acid water (35:65), flow rate: 0.3 ml/min, column temperature: 30°C, sample room temperature: 25°C, injection volume: 3 µL. […]

[8] = Plasmodium falciparum standard strain 3D7, cultured for 72 h, read-out: IC50

SMILES: Cc1nc(C)c(COC(=O)CCC(=O)OC2OC3OC4(C)CCC5C(C)CCC(C2C)C35OO4)nc1C [Compound Ia-1, (3R, 5aS, 6R, 9R, 10R, 12R, 12aR)-3,6,9-trimethyldecahydro-12h-3, 12-epoxy [1, 2] dioxopyran [4,3-i] isobenzopyran-10-yl ((3,5,6-trimethylpyrazine-2-yl)methyl) succinate]
body weight ([1]; 10 mg/kg, at the end of the observation): 16.66±0.45 | body weight ([1]; 20 mg/kg, throughout the observation period): no significant decrease | body weight ([1]; 40 mg/kg, throughout the observation period): no significant decrease | Recurrence rate (%) D4 ([2]; 10 mg/kg): 10% | Recurrence rate (%) D7 ([2]; 10 mg/kg, D7): 80% | Recurrence rate (%) D28 ([2]; 10 mg/kg): 100% | Recurrence rate (%) D4 ([2]; 20 mg/kg): 0% | Recurrence rate (%) D28 ([2]; 20 mg/kg): 10% | Recurrence rate (%) D4 ([2]; 40 mg/kg): 0% | Recurrence rate (%) D28 ([2]; 40 mg/kg): 10% | survival rate ([3]; 10 mg/kg Artesunazine (low dose)): 50% | survival rate ([3]; 20 mg/kg Artesunazine (medium dose)): 90% | survival rate ([3]; 40 mg/kg Artesunazine (high dose)): 100% | RMCBS score ([4]; 10 mg/kg): 18.40±0.48 points | RMCBS score ([4]; 20 mg/kg): around 20 points | RMCBS score ([4]; 40 mg/kg): around 20 points | IC50 [5, 8]: 7.36 nM | temperature ([6]; 20 mg/kg): better maintained the temperature | temperature ([6]; 40 mg/kg): better maintained the temperature | color of the solution [7]: basically unchanged

IC50 [5, 8]: 2.95 nM
SMILES: Cc1nc(C)c(COC(=O)CCCCCC(=O)OC2OC3OC4(C)CCC5C(C)CCC(C2C)C35OO4)nc1C [Compound Ia-5, (3R, 5aS, 6R, 9R, 10R, 12R, 12aR)-3,6,9-trimethyldecahydro-12h-3, 12-epoxy [1, 2] dioxopyran [4,3-i] isobenzopyran-10-yl ((3,5,6-trimethylpyrazine-2-yl)methyl) pimelate]

IC50 [5, 8]: 14.3 nM
SMILES: Cc1nc(C)c(COC(=O)CCCCC(=O)OC2OC3OC4(C)CCC5C(C)CCC(C2C)C35OO4)nc1C [Compound Ia-6, (3R, 5aS, 6R, 9R, 10R, 12R, 12aR)-3,6,9-trimethyldecahydro-12h-3, 12-epoxy [1, 2] dioxopyran [4,3-i] isobenzopyran-10-yl ((3,5,6-trimethylpyrazine-2-yl)methyl) adipate]

IC50 [5, 8]: 50.7 nM
SMILES: Cc1nc(C)c(COC(=O)CCCCCCC(=O)OC2OC3OC4(C)CCC5C(C)CCC(C2C)C35OO4)nc1C [Compound Ia-7, (3R, 5aS, 6R, 9R, 10R, 12R, 12aR)-3,6,9-trimethyldecahydro-12h-3, 12-epoxy [1, 2] dioxopyran [4,3-i] isobenzopyran-10-yl ((3,5,6-trimethylpyrazine-2-yl)methyl) suberate]

IC50 [5, 8]: 33.9 nM
SMILES: Cc1nc(C)c(COC(=O)CCCC(=O)OC2OC3OC4(C)CCC5C(C)CCC(C2C)C35OO4)nc1C [Compound Ia-4, (3R, 5aS, 6R, 9R, 10R, 12R, 12aR)-3,6,9-trimethyldecahydro-12h-3, 12-epoxy [1, 2] dioxopyran [4,3-i] isobenzopyran-10-yl ((3,5,6-trimethylpyrazine-2-yl)methyl) glutarate]

SMILES: Cc1nc(C)c(COC(=O)C2CCN(CC(=O)OC3OC4OC5(C)CCC6C(C)CCC(C3C)C46OO5)CC2)nc1C [Compound Ia-9, (3,5,6-trimethylpyrazine-2-yl) methyl 1-(2-oxy-2-(((3R, 5aS, 6R, 9R, 10S, 12R, 12aR)-3,6,9-trimethyldecahydro-12H-3, 12-epoxy [1, 2]dioxacycloheptane-10-yl)oxy)ethyl) piperidine-4-formate]
IC50 ([5]; Plasmodium falciparum, 3D7, 72 h): 32.7 nM
